In US10722480B2, “Agent for controlling cells constituting cancer microenvironment or inflammatory microenvironment” (The University of Tokyo, priority 2015, dated 2020):

Assays:
[1] = target: T1, FROUNT-CCR5 interaction (Homo sapiens, UniProt Q9BW27); assay: HTRF binding inhibition assay, FROUNT-CCR5 interaction; conditions: result in words
T1 construct: made in house
T1 sequence (Q9BW27 500-656): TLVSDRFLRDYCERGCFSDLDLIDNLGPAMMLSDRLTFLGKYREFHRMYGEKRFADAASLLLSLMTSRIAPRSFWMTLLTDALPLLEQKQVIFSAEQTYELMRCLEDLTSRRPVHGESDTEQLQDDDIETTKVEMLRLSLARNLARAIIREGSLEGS
Procedure: (§1) For the screening, a compound library containing 131,200 kinds of compounds dissolved in DMSO at a concentration of 10 mM or 2 mM (obtained from Open Innovation Center for Drug Discovery, the University of Tokyo) was used. The HTRF assay was carried out using a 384-well low-dose white microplate (Corning Coaster; catalog number 3676). In each well, 4 μL of a solution of 20 nM GST fusion FROUNT protein (a recombinant polypeptide prepared by fusing GST to aa 500-656 of SEQ ID NO:2), and DMSO or test compounds were mixed with a binding buffer (10 mM HEPES [pH 7.4], 0.2 M potassium fluoride, 10 mM NaCl, 0.1% Tween 20, and 0.5% bovine serum albumin [BSA]), and the plate was incubated at room temperature for 30 minutes. […]. After incubation at room temperature for 20 hours, the HTRF signal was measured at emission wavelengths of 620 nm and 665 nm using a multilabel counter EnVision (PerkinElmer).
(§2) By the same HTRF assay as described above, the abilities of disulfiram to inhibit the FROUNT-CCR2 interaction or the FROUNT-CCR5 interaction were investigated. As the CCR5 pro-C peptide, the 16 residues […] (SEQ ID NO:4) in the C-terminal region of CCR5 was used. As a control, the p53-MDM2 interaction (which is inhibited by an MDM-2-specific inhibitor Nutlin), which is also a helix peptide-protein interaction like the interaction between FROUNT and CCR2 or CCR5 but is not related thereto, was used.

[2] = system: B16F10 melanoma cells; assay: Lung metastasis model (B16F10); type: in vivo, mouse; conditions: B16F10 via tail vein, Day 9 post tumor administration
Procedure: To provide a lung metastasis model, 1×10^6 B16F10 melanoma cells were suspended in 200 μL of PBS, and administered from the tail vein of each of wild-type C57BL/6 mice. Administration of the inhibitor was carried out one day before, 30 minutes before, and one day after the tumor administration. To provide a control, DMSO and a pyrimidine fluoride anticancer drug 5-FU were administered. The mice were euthanized on Day 9 post tumor administration, and PBS was perfused from the left ventricle, followed by isolation of lungs. Visible lung metastatic lesions in the left lobe were counted.

[3] = system: LLC tumor cells; assay: LDH cytotoxicity assay, LLC tumor cells; type: cell-based; conditions: LDH release, 72 hours
Procedure: The cytotoxicity of inhibitors was tested by using LDH Cytotoxicity Detection Kit (TaKaRa) according to the manufacturer's instructions. Briefly, tumor cells were cultured in the presence or absence of an agent (disulfiram or 5FU) for 72 hours, and the culture supernatant was then collected and tested for the concentration of lactate dehydrogenase released from damaged cells. For measurement of cell proliferation, cells were incubated in a plate well together with an inhibitor for 48 hours. During the last 30 minutes, WST-1 (Dojindo Laboratories) was added to the culture liquid, and the absorbance of each well was measured at 450 nm versus 650 nm reference using EnVision (PerkinElmer) to detect the formazan level.

[4] = target: T2, FROUNT-CCR2 interaction (Homo sapiens, UniProt Q9BW27); assay: HTRF binding inhibition assay, FROUNT-CCR2 interaction
T2 construct: made in house
T2 sequence (Q9BW27 500-656): T1 sequence (Q9BW27 500-656)
Procedure: as §1, §2

[5] = target: p53-MDM2 interaction (Homo sapiens, UniProt Q00987); assay: HTRF binding inhibition assay, p53-MDM2 control interaction
Source text: as §2

[6] = system: human leukocyte cell line THP-1; assay: In vitro chemotaxis assay, THP-1; type: cell-based; conditions: THP-1, concentration without cytotoxicity
Procedure: A human leukocyte cell line THP-1 was counted and resuspended in Boyden buffer (RPMI medium supplemented with 0.1% BSA), and the cells were preincubated with disulfiram before the chemotaxis assay. The cell migration activity was measured using a 96-well ChemoTX Chemotaxis Chamber (Neuro probe) with a polycarbonate filter with a pore size of […] Chemokine was applied to the lower chamber of the plate, and the cells were applied to the upper chamber. After incubation at 37° C. in 5% CO2 for 90 minutes, the filter was removed, and the number of migrated cells in the lower chamber was counted using Cell Counting Kit F (Dojindo Laboratories).

[7] = system: LLC tumor; assay: Combined use with anti-PD-1 antibody, LLC tumor-bearing model; type: in vivo, mouse; conditions: DSF in feed from Day 4, anti-PD-1 antibody 0.2 mg i.p. x4
Procedure: To provide an example of combined use of an anticancer drug and disulfiram (DSF), the effect of combined use of an anti-PD-1 antibody, which is an anticancer drug targeting an immune checkpoint molecule, and DSF was studied using an LLC tumor-bearing model and a B16 tumor-bearing model. The B16 tumor-bearing model was prepared by transplanting 5×10^5 B16 melanoma cells to the right abdomen of each of wild-type C57BL/6 mice. Preparation of the LLC tumor-bearing model was carried out in the same manner as in the above-described section 3. A feed supplemented with DSF was provided in the same manner as in the above-described section 3.
The day of the transplantation of the tumor cells to the mice was defined as Day 0. From Day 4, the mice were fed with the feed supplemented with DSF or a control feed every day during the experimental period. An anti-PD-1 antibody (J43, manufactured by BioXcell) was intraperitoneally administered once at a dose of 0.2 mg on each of Day 5, Day 8, Day 14, and Day 18 (four times in total). To provide a control for the antibody administration, PBS was intraperitoneally administered. The tumor size was measured using a caliper twice a week, and the tumor volume was calculated.

[8] = target: T3, FROUNT protein (Homo sapiens, UniProt Q9BW27); assay: NMR analysis of binding to FROUNT fragment
T3 construct: A fragment consisting of the region of the 500th to 656th amino acids of FROUNT protein; made in house
T3 sequence (Q9BW27 500-656): T1 sequence (Q9BW27 500-656)
Procedure: A fragment consisting of the region of the 500th to 656th amino acids of FROUNT protein and a CCR2 pro-C region fragment of 16 residues (SEQ ID NO:3) were prepared, and the binding state between the two fragments and the binding state between FROUNT protein and disulfiram were investigated by NMR analysis.

p53-MDM2 interaction, sequence (Q00987 whole entry): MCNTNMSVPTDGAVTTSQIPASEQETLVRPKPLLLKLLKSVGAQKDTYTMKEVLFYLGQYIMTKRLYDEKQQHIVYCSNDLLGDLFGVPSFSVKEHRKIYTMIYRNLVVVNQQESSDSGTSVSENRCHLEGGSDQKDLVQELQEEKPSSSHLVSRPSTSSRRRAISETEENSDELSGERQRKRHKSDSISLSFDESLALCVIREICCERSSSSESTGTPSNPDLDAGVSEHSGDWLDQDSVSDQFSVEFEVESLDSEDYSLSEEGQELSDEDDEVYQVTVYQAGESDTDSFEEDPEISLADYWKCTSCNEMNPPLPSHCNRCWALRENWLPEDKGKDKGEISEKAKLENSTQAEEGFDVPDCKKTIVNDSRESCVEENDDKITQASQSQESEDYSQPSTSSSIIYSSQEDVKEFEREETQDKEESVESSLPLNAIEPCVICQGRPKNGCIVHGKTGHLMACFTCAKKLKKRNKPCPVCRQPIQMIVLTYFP

inhibition of FROUNT-CCR5 interaction [1]: selectively inhibited | inhibitory action against FROUNT-CCR2 relative to p53-MDM2 [4]: about 100 times | inhibition of FROUNT-CCR2 interaction ([4]; HTRF, result in words): selectively inhibited | IC50 ([4]; HTRF, read-out: FROUNT inhibition (IC50 against FROUNT-CCR2)): 0.042 µM | IC50 ([5]; p53-MDM2 control interaction): > 1 µM | inhibition of p53-MDM2 interaction ([5]; result in words): did not inhibit | interaction with FROUNT / binding site on FROUNT [8]: directly interact
SMILES: CCN(CC)C(=S)SSC(=S)N(CC)CC [DSF, disulfiram]
formation of lung metastatic lesions ([2]; listed as Disulfiram): significantly reduced | formation of lung metastatic lesions ([2]; listed as disulfiram): effectively reduced | cytotoxic activity on LLC tumor cells [3]: did not show cytotoxic activity | cell migration mediated by CCL2 [6]: inhibited | hyperplasia of cancer cells (tumor volume) [7]: inhibited
